Several values for one entry are separate records, joined by “and”; a condition that tells them apart may be missing. Equal values may be shown once.
Tests used:
[1] = biological target: CYP3A4 (Homo sapiens, UniProt P08684); experiment: In vitro clearance
[2] = test system: children with rare genetic epilepsies; experiment: Phase 2 open-label trial, safety, tolerability and disposition; type: in vivo, human
Description: (§1) Example 3 concerns a Phase 2 Multicenter, Open-Label Proof-of-Concept Trial of ganaxolone (GNX) in cohorts of children having genetic epilepsies (PCDH19, CDKL5 LGS, and CSWS) (ClinicalTrials.gov Identifier: NCT02358538). There were 11 female children with PCDH19 epilepsy between 5-16 years old with a confirmed genetic mutation. There were 6 female and 1 male children with confirmed genetic mutations in the CDKL5 cohort. There were 10 children in the Lennox Gastaut Syndrome cohort. Two children with CSWS were enrolled into the study. The study was conducted with 12 weeks baseline, and up to 26 weeks of treatment followed by a 52 week open label treatment. The primary efficacy was the percentage change in seizure frequency per 28 days relative to baseline calculated using daily seizure diary. [Time Frame: 26 weeks]. Secondary Outcome Measures were: Clinician Global Impression of Change score as assessed by questionnaire. [Time Frame: 26 Weeks]; Patient Global Impression of Change score as assessed by questionnaire. [Time Frame: 26 Weeks]; Evaluation of safety and tolerability of open-label ganaxolone as adjunctive therapy for uncontrolled seizures in children with rare genetic epilepsies, based on adverse event log and other clinical safety assessments. [Time Frame: 26 weeks]; Responder rates [Time Frame: 26 weeks]; and Seizure free days [Time Frame: 26 weeks].
(§2) Following screening and baseline evaluations, consenting patients enrolled into a 26-week study during which investigators were allowed to flexibly dose ganaxolone up to a dose of 1,800 mg/day for patients whose body weight was >30 kg, or up to 63 mg/kg/day for patients whose body-weight was <30 kg. The primary efficacy measure is % change from baseline in the 28-day seizure frequency count. Safety and tolerability were within the secondary objectives of the study.
A total of 30 subjects were enrolled in the study: one-half (15 subjects) completed the 26-week open-label treatment period and one-half (15 subjects) discontinued the study. In total, the main reasons for study discontinuation in the safety population were lack of efficacy (8 subjects [26.7%]), and AE or SAE (4 subjects [13.3%)]). All 30 (100.0%) subjects were in the safety and MITT population.
Ganaxolone was generally safe and well-tolerated in subjects with epilepsy disorders. […] In the CDD cohort, 6 subjects (85.7%) experienced a total of 45 TEAEs; in the CSWS cohort, 1 subject (50.0%) had 7 TEAEs; in the LGS cohort, 7 subjects (70.0%) had 24 TEAEs; and in the PCDH19 cohort, 11 subjects (100.0%) had 95 TEAEs.
No deaths were reported in this study.

[3] = test system: children with Lennox-Gastaut Syndrome; experiment: Phase 2 open-label trial, LGS cohort, seizure efficacy; type: in vivo, human
Description: as §1, §2
In this study, oral ganaxolone suspension or capsules were administered up to a total of 63 mg/kg/day (maximum 1800 mg/day) over 2-4 weeks. About six-eight titration steps are used, depending on the size of the patient. Children larger than 30 kg may take the ganaxolone capsules. The ganaxolone oral suspension was administered through an oral dosing syringe three times daily. The ganaxolone capsules were administered twice daily. The patients experience better absorption of the ganaxolone with meals (milk).
After establishing baseline seizure frequency, qualifying subjects entered the study and were treated with open-label ganaxolone oral suspension or ganaxolone capsules at doses up to a maximum of 1800 mg/day for up to 6 months. Maximum study participation was 94 weeks: a screening period up to 12 weeks to establish baseline seizure frequency, up to 26 weeks of treatment, a 52 week extension for subjects who benefited from ganaxolone treatment, and up to 4 weeks of down titration period. […] Refractive cases of LGS or CSWS that had prior response to steroid or ACTH could also have been enrolled.
Ganaxolone oral suspension was administered through an oral dosing syringe by parent or legal guardian 3 times daily (TID), following the morning, noon, and evening meal or snack. Each dose was separated by a minimum of 4 hours and a maximum of 8 hours. A missed dose of ganaxolone could have been taken up to 4 hours before the next scheduled dose; otherwise, the missed dose was not to be given.
Ganaxolone capsules were administered with a glass of water or other liquid 2 times daily (BID), following the morning and evening meal or snack. Ganaxolone was provided as either an oral suspension or capsules based on the subject's weight at study entry. Ganaxolone oral suspension was administered through an oral dosing syringe TID by a parent or guardian, following the morning, midday, and evening meal or snack. Each dose was separated by a minimum of 4 hours and a maximum of 8 hours. Ganaxolone capsules were administered BID, following the morning and evening meal or snack. […]

[4] = test system: rabbits; experiment: Local tolerance study in rabbits; type: in vivo, rabbit
Experimental: When given IV to rats and dogs, the main dose limiting toxicity finding was sedation. The no observed adverse effect level (NOAEL) after IV dosing in rats for 14 days was established at 42 mg/kg/day for males and 30 mg/kg/day for females. The NOAEL in dog after administration of ganaxolone by IV bolus followed by continuous IV infusion for 28 days was 7.20 mg/kg/day, which corresponded to a steady-state concentration of approximately 330 ng/mL and 333 ng/mL. There were no findings in a local tolerance study in rabbits.

CYP3A4, sequence (P08684 whole entry): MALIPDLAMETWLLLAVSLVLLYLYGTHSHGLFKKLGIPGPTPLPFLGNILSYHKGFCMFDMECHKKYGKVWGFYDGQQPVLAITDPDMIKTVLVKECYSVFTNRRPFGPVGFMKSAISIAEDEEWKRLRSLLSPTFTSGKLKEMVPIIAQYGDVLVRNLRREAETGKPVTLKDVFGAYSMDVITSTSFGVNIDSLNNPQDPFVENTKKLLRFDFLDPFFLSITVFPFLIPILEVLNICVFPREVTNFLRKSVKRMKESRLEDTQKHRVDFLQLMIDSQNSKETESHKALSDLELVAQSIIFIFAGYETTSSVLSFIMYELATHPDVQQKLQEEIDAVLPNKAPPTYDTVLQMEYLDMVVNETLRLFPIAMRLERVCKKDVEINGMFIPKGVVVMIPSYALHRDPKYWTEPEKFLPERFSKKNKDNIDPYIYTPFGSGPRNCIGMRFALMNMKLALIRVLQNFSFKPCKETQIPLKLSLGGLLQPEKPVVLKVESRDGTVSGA

CC(=O)[C@H]1CC[C@H]2[C@@H]3CC[C@H]4C[C@](C)(O)CC[C@]4(C)[C@H]3CC[C@]12C [Ganaxolone, 3α-hydroxy-3β-methyl-5α-pregnan-20-one]
Enzyme driving clearance [1]: driven mainly by CYP3A4 | Total number of TEAEs ([2]; CDD cohort): 45 TEAEs | Subjects experiencing TEAEs ([2]; CDD cohort, safety population): 85.7% | Discontinued during the 26-week open-label period, reason AE or SAE ([2]; CDKL5 N = 7): 0 n (%) | Discontinued during the 26-week open-label period, reason lack of efficacy ([2]; CDKL5 N = 7): 1 n (%) | Discontinued during the 26-week open-label period, reason AE or SAE ([2]; CSWS N = 2): 1 n (%) | Discontinued during the 26-week open-label period, reason lack of efficacy ([2]; CSWS N = 2): 1 n (%) | Subjects experiencing TEAEs ([2]; CSWS cohort): 50.0% | Total number of TEAEs ([2]; CSWS cohort): 7 TEAEs | Discontinued during the 26-week open-label period, reason AE or SAE ([2]; LGS N = 10): 1 (10.0) n (%) | Discontinued during the 26-week open-label period, reason lack of efficacy ([2]; LGS N = 10): 3 (30.0) n (%) | Subjects experiencing TEAEs ([2]; LGS cohort): 70.0% | Total number of TEAEs ([2]; LGS cohort): 24 TEAEs | Adverse event: Abdominal pain ([2]; PCDH19 N = 11): 2 (18.2) N (%) | Adverse event: Fatigue ([2]; PCDH19 N = 11): 3 (27.3) N (%) | Adverse event: Headache ([2]; PCDH19 N = 11): 3 (27.3) N (%) | Adverse event: Pyrexia ([2]; PCDH19 N = 11): 2 (18.2) N (%) | Adverse event: Seizure ([2]; PCDH19 N = 11): 3 (27.3) N (%) | Adverse event: Somnolence ([2]; PCDH19 N = 11): 4 (36.4) N (%) | Adverse event: Vomiting ([2]; PCDH19 N = 11): 2 (18.2) N (%) | Discontinued during the 26-week open-label period, reason AE or SAE ([2]; PCDH19 N = 11): 2 n (%) | Discontinued during the 26-week open-label period, reason lack of efficacy ([2]; PCDH19 N = 11): 3 n (%) | Subjects experiencing TEAEs ([2]; PCDH19 cohort): 100.0% | Total number of TEAEs ([2]; PCDH19 cohort): 95 TEAEs | Discontinued during the 26-week open-label period, reason AE or SAE ([2]; Total N = 30): 4 n (%) | Discontinued during the 26-week open-label period, reason lack of efficacy ([2]; Total N = 30): 8 n (%) | Deaths ([2]; all cohorts): No deaths | Subjects experiencing SAEs ([2]; all cohorts, N=30): 20.0% | Subjects overall experiencing TEAEs ([2]; all cohorts, N=30): 83.3% | Subjects with a TEAE that led to discontinuation of study drug ([2]; all cohorts, N=30): 13.3% | Subjects with mild TEAEs ([2]; all cohorts, N=30): 23.3% | Subjects with moderate TEAEs ([2]; all cohorts, N=30): 46.7% | Subjects with severe TEAEs ([2]; all cohorts, N=30): 13.3% | Subjects with treatment-related TEAEs ([2]; all cohorts, N=30): 53.3% | 28-day seizure frequency, sum of individual seizures and clusters, post-baseline 26-week open-label period, Mean (SD) ([3]; LGS N=10, MITT): 263.66 (502.176) | 28-day seizure frequency, sum of individual seizures and clusters, post-baseline 26-week open-label period, Median ([3]; LGS N=10, MITT): 65.08 | 28-day seizure frequency, sum of individual seizures and clusters, post-baseline through Month 3 (Day 91), Mean (SD) ([3]; LGS N=10, MITT): 263.91 (502.477) | 28-day seizure frequency, sum of individual seizures and clusters, post-baseline through Month 3 (Day 91), Median ([3]; LGS N=10, MITT): 75.91 | Percent change from baseline (at Day 91), 28-day seizure frequency, sum of individual seizures and clusters, Mean (SD) ([3]; LGS N=10, MITT): 122.10% and 122.10 (321.124) % | Percent change from baseline (at Week 26), 28-day seizure frequency, sum of individual seizures and clusters, Mean (SD) ([3]; LGS N=10, MITT): 125.38% and 125.38 (319.051) % | Percent change from baseline (at Week 26), 28-day seizure frequency, sum of individual seizures and clusters, Median ([3]; LGS N=10, MITT): −9.19% | Mean percent change in 28-day total seizure frequency from baseline to Week 26 ([3]; LGS cohort, PP Population): 18.43% | Median percent change in 28-day total seizure frequency from baseline to Week 26 ([3]; LGS cohort, PP Population): 11.15% | Clinical global impression of improvement: much improved ([3]; LGS cohort, end of Week 26): 1 subject | Clinical global impression of improvement: very much improved ([3]; LGS cohort, end of Week 26): 1 subject | Percent change from baseline (at Day 91), 28-day individual seizure frequency, Mean (SD) ([3]; LGS n=9, MITT): 226.72% and 226.72 (496.750) % | Percent change from baseline (at Day 91), 28-day individual seizure frequency, Median ([3]; LGS n=9, MITT): −9.56% | Percent change from baseline (at Week 26), 28-day individual seizure frequency, Mean (SD) ([3]; LGS n=9, MITT): 229.90% and 229.90 (494.164) % | Percent change from baseline (at Week 26), 28-day individual seizure frequency, Median ([3]; LGS n=9, MITT): 5.04% | 28-day individual seizure frequency, post-baseline 26-Week open-label period, Mean (SD) ([3]; LGS n=10, MITT): 257.07 (503.453) | 28-day individual seizure frequency, post-baseline 26-Week open-label period, Median ([3]; LGS n=10, MITT): 55.93 | 28-day individual seizure frequency, post-baseline through Month 3 (Day 91), Mean (SD) ([3]; LGS n=10, MITT): 256.48 (503.934) | 28-day individual seizure frequency, post-baseline through Month 3 (Day 91), Median ([3]; LGS n=10, MITT): 64.71 | Local tolerance [4]: no findings
